Measurements as given in patent publication US20030072824A1, “Ume extract having medicinal effects and compositions containing the same” (priority 1998, published 2003).

Assay: Anti-oxidation action, DPPH radical trapping (Example 2)
Conditions: absorbance at 517 nm reduced to half, 30 minutes
Protocol: An ethanol solution of a stable radical 1,1-diphenyl-2-picryl-hydrazyl (DPPH) has an absorption at 517 nm in blue. When a radical trapping substance is added to this solution, the solution is discolored depending on the amount of the trapping substance added. This phenomenon was utilized in this method. First, 1 ml of ethanol, 1 ml of an ethanol solution of the extract (concentration: 0 to 100 μg/ml), 2 ml of 0.2 M acetic acid buffer solution (pH 5.5) and 1 ml of DPPH solution (2.0×10^−7 mol/ml ethanol solution) were mixed, and the mixture was allowed to stand for 30 minutes. Then, the absorbance of this mixed solution was determined at 517 nm. On the other hand, a mixture solution substituting 1 ml of ethanol for the DPPH solution was used as a blank, and the absorbance of this mixture solution was determined at 517 nm in the same manner as the above. Then, the amount of the extract required to reduce the absorbance to half was calculated, and this was used as an indicator of anti-oxidation. As comparative examples, α-tocopherol and green tea were used in place of the extract, and the anti-oxidation power thereof was investigated.

In the case of Cc1c(C)c2c(c(C)c1O)CC[C@@](C)(CCC[C@H](C)CCC[C@H](C)CCCC(C)C)O2 [α-tocopherol], the “Anti-oxidation power: the amount required to trap 1.0 × 10^−7 mol DPPH” value is reported as 21 μg.
